From the supplement of paper PMC10307832

Assays:
Assay in all cases: relative viability (nuclei count vs DMSO), 5 days (fraction); higher = more cells survive
[1] = tested on: A-427
Summary of the method: (§1)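 Nuclei were stained with Hoechst during a one-step fixation (final 0.05% Triton X-100, 1% formaldehyde, 1 ug/ml Hoechst) carried out 5 days after dosing, then counted on 4× images. The cells, lung cancer lines in 1536-well plates, had been dosed by pin tool the day after seeding with one drug alone or a fixed anchor-drug dose plus five library-drug doses (not always all listed) in √10 steps. Relative viability is the nuclei count in treated wells divided by that in vehicle wells, and each value is the median of duplicate plates.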

[2] = tested on: CAL-12T
Summary of the method: as §1

[3] = tested on: COR-L 105
Summary of the method: as §1

[4] = tested on: EPLC-272H
Summary of the method: as §1

[5] = tested on: HCC-15
Summary of the method: as §1

[6] = tested on: HCC-44
Summary of the method: as §1

[7] = tested on: LC-2-ad
Summary of the method: as §1

[8] = tested on: LCLC-97TM1
Summary of the method: as §1

[9] = tested on: NCI-H1395
Summary of the method: as §1

[10] = tested on: NCI-H1734
Summary of the method: as §1

[11] = tested on: NCI-H1915
Summary of the method: as §1

[12] = tested on: NCI-H1975
Summary of the method: as §1

[13] = tested on: NCI-H2023
Summary of the method: as §1

[14] = tested on: NCI-H2342
Summary of the method: as §1

[15] = tested on: NCI-H2347
Summary of the method: as §1

[16] = tested on: NCI-H2405
Summary of the method: as §1

[17] = tested on: NCI-H520
Summary of the method: as §1

[18] = tested on: NCI-H838
Summary of the method: as §1

[19] = tested on: SW 1573
Summary of the method: as §1

[20] = tested on: SW 900
Summary of the method: as §1

[21] = tested on: UMC-11
Summary of the method: as §1

Cc1csc(=NC2CCCCC2)n1/N=C/c1ccc(O)c(O)c1O [MIM1] + O=C(CCCCCCC(=O)Nc1ccccc1)NO [Vorinostat] (partner 1 µM) was tested. Which relative viability ([1]; first compound 0.2 µM) did it give?
Its relative viability is 0.858.

And the relative viability ([1]; first compound 0.6325 µM)?
The relative viability was 0.663.

What about the relative viability ([1]; first compound 2 µM) of the same compound?
The relative viability was 0.849.

What about the relative viability ([1]; first compound 6.325 µM) of the same compound?
Its relative viability is 0.745.

And the relative viability ([1]; first compound 20 µM)?
The relative viability was 0.312.

What about the relative viability ([2]; first compound 0.2 µM) of the same compound?
Its relative viability is 0.765.

What about the relative viability ([2]; first compound 0.6325 µM) of the same compound?
Its relative viability is 0.752.

And the relative viability ([2]; first compound 2 µM)?
Its relative viability is 0.801.

What about the relative viability ([2]; first compound 6.325 µM) of the same compound?
The relative viability was 0.588.

What about the relative viability ([2]; first compound 20 µM) of the same compound?
The relative viability was 0.595.

And the relative viability ([3]; first compound 0.2 µM)?
The relative viability was 0.809.

What about the relative viability ([3]; first compound 0.6325 µM) of the same compound?
Its relative viability is 0.821.

What about the relative viability ([3]; first compound 2 µM) of the same compound?
The relative viability was 0.774.

What about the relative viability ([3]; first compound 6.325 µM) of the same compound?
Its relative viability is 0.731.

What about the relative viability ([3]; first compound 20 µM) of the same compound?
The relative viability was 0.616.

What about the relative viability ([4]; first compound 0.2 µM) of the same compound?
Its relative viability is 0.509.

What about the relative viability ([4]; first compound 0.6325 µM) of the same compound?
The relative viability was 0.523.

And the relative viability ([4]; first compound 2 µM)?
The relative viability was 0.343.

What about the relative viability ([4]; first compound 6.325 µM) of the same compound?
The relative viability was 0.125.

What about the relative viability ([4]; first compound 20 µM) of the same compound?
The relative viability was 0.126.

What about the relative viability ([5]; first compound 0.2 µM) of the same compound?
The relative viability was 0.789.

And the relative viability ([5]; first compound 0.6325 µM)?
The relative viability was 0.81.

What about the relative viability ([5]; first compound 2 µM) of the same compound?
The relative viability was 0.87.

What about the relative viability ([5]; first compound 6.325 µM) of the same compound?
Its relative viability is 0.49.

And the relative viability ([5]; first compound 20 µM)?
Its relative viability is 0.167.

What about the relative viability ([6]; first compound 0.2 µM) of the same compound?
Its relative viability is 1.1.

And the relative viability ([6]; first compound 0.6325 µM)?
Its relative viability is 1.1.

And the relative viability ([6]; first compound 2 µM)?
Its relative viability is 1.01.

And the relative viability ([6]; first compound 6.325 µM)?
The relative viability was 1.08.

What about the relative viability ([6]; first compound 20 µM) of the same compound?
The relative viability was 0.324.

What about the relative viability ([7]; first compound 0.2 µM) of the same compound?
The relative viability was 0.698.

And the relative viability ([7]; first compound 0.6325 µM)?
The relative viability was 0.306.

What about the relative viability ([7]; first compound 2 µM) of the same compound?
The relative viability was 0.777.

And the relative viability ([7]; first compound 6.325 µM)?
Its relative viability is 0.267.

And the relative viability ([7]; first compound 20 µM)?
Its relative viability is 0.204.

What about the relative viability ([8]; first compound 0.2 µM) of the same compound?
Its relative viability is 0.594.

And the relative viability ([8]; first compound 0.6325 µM)?
Its relative viability is 0.23.

What about the relative viability ([8]; first compound 2 µM) of the same compound?
The relative viability was 0.719.

And the relative viability ([8]; first compound 6.325 µM)?
Its relative viability is 0.236.

What about the relative viability ([8]; first compound 20 µM) of the same compound?
The relative viability was 0.0643.

What about the relative viability ([9]; first compound 0.2 µM) of the same compound?
Its relative viability is 0.799.

What about the relative viability ([9]; first compound 0.6325 µM) of the same compound?
The relative viability was 0.626.

And the relative viability ([9]; first compound 2 µM)?
Its relative viability is 0.641.

What about the relative viability ([9]; first compound 6.325 µM) of the same compound?
Its relative viability is 0.422.

And the relative viability ([9]; first compound 20 µM)?
The relative viability was 0.322.

What about the relative viability ([10]; first compound 0.2 µM) of the same compound?
The relative viability was 0.911.

And the relative viability ([10]; first compound 0.6325 µM)?
Its relative viability is 0.582.

And the relative viability ([10]; first compound 2 µM)?
Its relative viability is 0.757.

What about the relative viability ([10]; first compound 6.325 µM) of the same compound?
The relative viability was 0.442.

And the relative viability ([10]; first compound 20 µM)?
Its relative viability is 0.125.

And the relative viability ([11]; first compound 0.2 µM)?
Its relative viability is 0.527.

What about the relative viability ([11]; first compound 0.6325 µM) of the same compound?
The relative viability was 0.429.

What about the relative viability ([11]; first compound 2 µM) of the same compound?
Its relative viability is 0.442.

And the relative viability ([11]; first compound 6.325 µM)?
Its relative viability is 0.343.

What about the relative viability ([11]; first compound 20 µM) of the same compound?
Its relative viability is 0.17.

And the relative viability ([12]; first compound 0.2 µM)?
The relative viability was 0.682.

And the relative viability ([12]; first compound 0.6325 µM)?
Its relative viability is 0.708.

And the relative viability ([12]; first compound 2 µM)?
The relative viability was 0.644.

And the relative viability ([12]; first compound 6.325 µM)?
Its relative viability is 0.239.

And the relative viability ([12]; first compound 20 µM)?
Its relative viability is 0.204.

What about the relative viability ([13]; first compound 0.2 µM) of the same compound?
Its relative viability is 0.55.

And the relative viability ([13]; first compound 0.6325 µM)?
The relative viability was 0.58.

And the relative viability ([13]; first compound 2 µM)?
The relative viability was 0.391.

And the relative viability ([13]; first compound 6.325 µM)?
Its relative viability is 0.194.

What about the relative viability ([13]; first compound 20 µM) of the same compound?
The relative viability was 0.0736.

What about the relative viability ([14]; first compound 0.2 µM) of the same compound?
The relative viability was 0.727.

What about the relative viability ([14]; first compound 0.6325 µM) of the same compound?
The relative viability was 0.719.

What about the relative viability ([14]; first compound 2 µM) of the same compound?
The relative viability was 0.774.

And the relative viability ([14]; first compound 6.325 µM)?
Its relative viability is 0.589.

What about the relative viability ([14]; first compound 20 µM) of the same compound?
Its relative viability is 0.905.

And the relative viability ([15]; first compound 0.2 µM)?
The relative viability was 0.68.

What about the relative viability ([15]; first compound 0.6325 µM) of the same compound?
The relative viability was 0.643.

And the relative viability ([15]; first compound 2 µM)?
Its relative viability is 0.652.

What about the relative viability ([15]; first compound 6.325 µM) of the same compound?
The relative viability was 0.449.

And the relative viability ([15]; first compound 20 µM)?
The relative viability was 0.315.

And the relative viability ([16]; first compound 0.2 µM)?
Its relative viability is 1.01.

What about the relative viability ([16]; first compound 0.6325 µM) of the same compound?
Its relative viability is 0.964.

And the relative viability ([16]; first compound 2 µM)?
Its relative viability is 1.11.

And the relative viability ([16]; first compound 6.325 µM)?
Its relative viability is 0.749.

What about the relative viability ([16]; first compound 20 µM) of the same compound?
Its relative viability is 0.416.

And the relative viability ([17]; first compound 0.2 µM)?
Its relative viability is 0.64.

And the relative viability ([17]; first compound 0.6325 µM)?
The relative viability was 0.744.

And the relative viability ([17]; first compound 2 µM)?
The relative viability was 0.833.

What about the relative viability ([17]; first compound 6.325 µM) of the same compound?
Its relative viability is 0.538.

What about the relative viability ([17]; first compound 20 µM) of the same compound?
The relative viability was 0.308.

What about the relative viability ([18]; first compound 0.2 µM) of the same compound?
Its relative viability is 0.717.

And the relative viability ([18]; first compound 0.6325 µM)?
The relative viability was 0.747.

And the relative viability ([18]; first compound 2 µM)?
Its relative viability is 0.675.

And the relative viability ([18]; first compound 6.325 µM)?
Its relative viability is 0.413.

What about the relative viability ([18]; first compound 20 µM) of the same compound?
The relative viability was 0.197.

And the relative viability ([19]; first compound 0.2 µM)?
The relative viability was 0.806.

What about the relative viability ([19]; first compound 0.6325 µM) of the same compound?
The relative viability was 0.668.

What about the relative viability ([19]; first compound 2 µM) of the same compound?
Its relative viability is 0.773.

What about the relative viability ([19]; first compound 6.325 µM) of the same compound?
Its relative viability is 0.573.

And the relative viability ([19]; first compound 20 µM)?
Its relative viability is 0.131.

And the relative viability ([20]; first compound 0.2 µM)?
Its relative viability is 0.45.

What about the relative viability ([20]; first compound 0.6325 µM) of the same compound?
The relative viability was 0.632.

What about the relative viability ([20]; first compound 2 µM) of the same compound?
Its relative viability is 0.549.

And the relative viability ([20]; first compound 6.325 µM)?
Its relative viability is 0.175.

What about the relative viability ([20]; first compound 20 µM) of the same compound?
Its relative viability is 0.187.

What about the relative viability ([21]; first compound 0.2 µM) of the same compound?
Its relative viability is 0.501.

What about the relative viability ([21]; first compound 0.6325 µM) of the same compound?
The relative viability was 0.392.

What about the relative viability ([21]; first compound 2 µM) of the same compound?
The relative viability was 0.438.

And the relative viability ([21]; first compound 6.325 µM)?
The relative viability was 0.243.

What about the relative viability ([21]; first compound 20 µM) of the same compound?
The relative viability was 0.147.
